pIC50: −log10 of the molar value. Where two headings read alike, the source gives them in different places.
Experiments:
[1] = system: voltage-gated sodium ion channels; experiment: Assays for detecting and measuring NaV inhibition properties of compounds (Table 3 activity data; the specific assay and subtype are not stated); assay type: cell-based
[2] = system: neuropathic pain; conditions: in vivo; cited from earlier work
[3] = molecular target: NaV1.3 (Homo sapiens, UniProt Q9NY46); conditions: read-out: TTX IC50; cited from earlier work
[4] = molecular target: NaV1.6 (Homo sapiens, UniProt Q9UQD0); conditions: read-out: TTX IC50; cited from earlier work
[5] = molecular target: NaV1.8 (Homo sapiens, UniProt Q9Y5Y9); conditions: read-out: TTX IC50; cited from earlier work
[6] = molecular target: NaV1.9 (Homo sapiens, UniProt Q9UI33); conditions: read-out: TTX IC50; cited from earlier work
[7] = molecular target: NaV1.1 (Homo sapiens, UniProt P35498); conditions: read-out: TTX IC50; cited from earlier work
[8] = activity data for selected compounds, NaV subtype not stated, read-out: IC50

Sequence of NaV1.3 (Q9NY46 whole entry, looked up): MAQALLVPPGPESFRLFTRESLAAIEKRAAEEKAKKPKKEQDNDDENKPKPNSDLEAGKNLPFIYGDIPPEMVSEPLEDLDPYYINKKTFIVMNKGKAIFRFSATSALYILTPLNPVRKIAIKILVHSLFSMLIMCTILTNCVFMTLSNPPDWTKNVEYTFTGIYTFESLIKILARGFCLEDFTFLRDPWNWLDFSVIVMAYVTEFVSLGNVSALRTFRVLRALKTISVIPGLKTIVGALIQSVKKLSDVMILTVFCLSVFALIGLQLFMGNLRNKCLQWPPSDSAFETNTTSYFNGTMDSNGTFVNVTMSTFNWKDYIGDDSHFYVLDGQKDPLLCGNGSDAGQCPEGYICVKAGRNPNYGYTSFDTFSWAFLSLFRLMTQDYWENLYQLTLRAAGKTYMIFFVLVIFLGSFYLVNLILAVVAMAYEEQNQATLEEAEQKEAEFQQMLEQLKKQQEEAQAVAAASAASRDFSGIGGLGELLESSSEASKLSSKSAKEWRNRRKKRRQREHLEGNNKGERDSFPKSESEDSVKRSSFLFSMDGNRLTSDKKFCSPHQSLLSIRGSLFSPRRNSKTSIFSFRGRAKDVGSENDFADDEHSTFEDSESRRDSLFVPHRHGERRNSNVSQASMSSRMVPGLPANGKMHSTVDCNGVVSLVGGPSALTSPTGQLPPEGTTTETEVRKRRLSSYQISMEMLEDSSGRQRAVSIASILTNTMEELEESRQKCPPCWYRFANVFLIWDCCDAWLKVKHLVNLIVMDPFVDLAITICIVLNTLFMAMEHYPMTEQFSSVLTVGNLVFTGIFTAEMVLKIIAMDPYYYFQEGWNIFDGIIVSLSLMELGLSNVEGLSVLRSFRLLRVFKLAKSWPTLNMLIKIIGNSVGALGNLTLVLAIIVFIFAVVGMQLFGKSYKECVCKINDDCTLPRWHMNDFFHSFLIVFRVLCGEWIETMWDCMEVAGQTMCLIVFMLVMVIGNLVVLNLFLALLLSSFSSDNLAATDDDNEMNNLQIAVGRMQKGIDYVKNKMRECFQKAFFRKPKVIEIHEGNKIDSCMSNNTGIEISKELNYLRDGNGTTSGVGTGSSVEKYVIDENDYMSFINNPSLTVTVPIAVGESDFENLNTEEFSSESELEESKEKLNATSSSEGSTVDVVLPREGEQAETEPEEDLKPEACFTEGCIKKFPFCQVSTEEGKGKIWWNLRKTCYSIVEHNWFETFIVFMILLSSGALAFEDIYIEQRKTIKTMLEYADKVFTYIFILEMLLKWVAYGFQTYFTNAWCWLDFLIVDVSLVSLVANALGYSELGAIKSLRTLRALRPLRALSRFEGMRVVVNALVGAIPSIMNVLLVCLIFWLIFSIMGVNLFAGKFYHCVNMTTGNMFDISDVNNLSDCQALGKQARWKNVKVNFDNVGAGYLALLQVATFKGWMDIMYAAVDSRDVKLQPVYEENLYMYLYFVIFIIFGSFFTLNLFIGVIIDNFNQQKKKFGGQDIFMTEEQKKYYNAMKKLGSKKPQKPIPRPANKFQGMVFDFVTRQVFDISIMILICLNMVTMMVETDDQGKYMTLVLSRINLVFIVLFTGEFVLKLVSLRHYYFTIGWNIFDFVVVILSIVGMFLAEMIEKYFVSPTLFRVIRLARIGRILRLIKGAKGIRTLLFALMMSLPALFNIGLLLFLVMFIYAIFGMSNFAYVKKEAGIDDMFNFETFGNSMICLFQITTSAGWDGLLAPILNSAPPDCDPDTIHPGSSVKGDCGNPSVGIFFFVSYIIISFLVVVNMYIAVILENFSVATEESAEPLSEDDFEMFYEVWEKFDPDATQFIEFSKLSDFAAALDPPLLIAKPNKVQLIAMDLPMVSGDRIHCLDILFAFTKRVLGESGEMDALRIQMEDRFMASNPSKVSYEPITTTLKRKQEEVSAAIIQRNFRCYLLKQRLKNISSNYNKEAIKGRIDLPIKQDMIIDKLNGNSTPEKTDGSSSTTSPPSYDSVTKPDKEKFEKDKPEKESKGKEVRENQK
Sequence of NaV1.6 (Q9UQD0 whole entry, looked up): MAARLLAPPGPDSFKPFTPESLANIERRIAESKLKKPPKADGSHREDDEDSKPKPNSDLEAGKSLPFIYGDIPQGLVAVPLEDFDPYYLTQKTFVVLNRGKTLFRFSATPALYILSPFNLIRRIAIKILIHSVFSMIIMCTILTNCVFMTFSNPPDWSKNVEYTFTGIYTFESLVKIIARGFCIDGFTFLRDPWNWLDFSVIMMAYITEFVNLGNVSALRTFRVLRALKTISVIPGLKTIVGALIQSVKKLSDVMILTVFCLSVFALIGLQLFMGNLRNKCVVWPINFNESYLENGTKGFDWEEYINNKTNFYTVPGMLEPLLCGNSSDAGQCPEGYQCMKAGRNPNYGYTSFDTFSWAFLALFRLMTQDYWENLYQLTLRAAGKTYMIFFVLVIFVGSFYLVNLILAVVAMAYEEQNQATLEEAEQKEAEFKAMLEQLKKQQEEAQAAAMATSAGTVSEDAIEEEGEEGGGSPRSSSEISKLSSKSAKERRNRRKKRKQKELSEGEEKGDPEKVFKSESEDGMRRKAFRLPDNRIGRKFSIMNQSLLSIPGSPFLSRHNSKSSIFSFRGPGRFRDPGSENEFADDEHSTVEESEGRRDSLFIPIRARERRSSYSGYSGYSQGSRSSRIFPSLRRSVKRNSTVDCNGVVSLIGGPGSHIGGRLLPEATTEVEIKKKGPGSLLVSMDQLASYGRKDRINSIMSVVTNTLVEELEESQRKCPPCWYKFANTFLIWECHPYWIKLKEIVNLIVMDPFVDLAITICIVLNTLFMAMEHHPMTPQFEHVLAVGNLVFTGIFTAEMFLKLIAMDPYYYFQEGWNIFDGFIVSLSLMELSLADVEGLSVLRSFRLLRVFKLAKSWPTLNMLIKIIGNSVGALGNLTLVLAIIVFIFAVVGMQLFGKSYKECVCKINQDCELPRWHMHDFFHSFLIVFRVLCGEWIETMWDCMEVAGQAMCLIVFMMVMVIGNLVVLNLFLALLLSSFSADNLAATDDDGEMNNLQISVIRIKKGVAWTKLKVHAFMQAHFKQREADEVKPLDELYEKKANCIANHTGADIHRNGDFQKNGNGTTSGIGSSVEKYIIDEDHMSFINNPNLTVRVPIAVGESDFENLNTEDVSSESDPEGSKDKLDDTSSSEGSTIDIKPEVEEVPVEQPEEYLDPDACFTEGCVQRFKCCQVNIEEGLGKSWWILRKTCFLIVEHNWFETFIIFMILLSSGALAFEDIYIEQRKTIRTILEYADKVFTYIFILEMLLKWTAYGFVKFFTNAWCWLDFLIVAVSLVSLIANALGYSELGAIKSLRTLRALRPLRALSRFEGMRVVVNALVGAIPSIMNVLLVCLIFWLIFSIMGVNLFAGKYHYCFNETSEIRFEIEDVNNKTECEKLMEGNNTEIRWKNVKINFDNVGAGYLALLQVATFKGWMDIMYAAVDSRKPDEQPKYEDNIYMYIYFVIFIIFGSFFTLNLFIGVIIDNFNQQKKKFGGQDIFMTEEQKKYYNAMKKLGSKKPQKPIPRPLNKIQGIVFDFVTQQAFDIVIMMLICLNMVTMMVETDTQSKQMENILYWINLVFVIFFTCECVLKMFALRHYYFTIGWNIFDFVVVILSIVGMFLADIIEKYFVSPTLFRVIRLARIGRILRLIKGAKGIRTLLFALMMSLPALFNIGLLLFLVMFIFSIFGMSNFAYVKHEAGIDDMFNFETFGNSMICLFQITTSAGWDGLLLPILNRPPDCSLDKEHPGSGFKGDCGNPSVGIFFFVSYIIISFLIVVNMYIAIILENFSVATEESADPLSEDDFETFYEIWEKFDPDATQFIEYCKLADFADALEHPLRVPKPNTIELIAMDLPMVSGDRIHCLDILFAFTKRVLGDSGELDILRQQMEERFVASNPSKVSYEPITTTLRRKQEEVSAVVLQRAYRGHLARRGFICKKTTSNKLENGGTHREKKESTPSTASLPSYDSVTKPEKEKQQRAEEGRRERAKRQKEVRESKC

## O=C(COc1ccc(Cl)cc1)Nc1ccc(-c2ccc(S(=O)(=O)Nc3nccs3)cc2)cc1 [Compound 1]
[1]; [8]
  pIC50: 5.30 to 6.00

## COc1cccc(CC(=O)Nc2ccc(-c3ccc(S(=O)(=O)Nc4nccs4)cc3)cc2)c1 [Compound 2]
[1]
  pIC50: < 5.30

## O=C(Nc1ccc(-c2ccc(S(=O)(=O)Nc3nccs3)cc2)cc1)c1ccccc1F [Compound 3]
[1]
  pIC50: 5.30 to 6.00

## O=C(COc1ccnc2c(C(F)(F)F)cccc12)Nc1ccc(-c2ccc(S(=O)(=O)Nc3nccs3)cc2)cc1 [Compound 4, N-[4′-(Thiazol-2-ylsulfamoyl)-biphenyl-4-yl]-2-(8-trifluoromethyl-quinolin-4-yloxy)-acetamide]
[1]; [8]
  pIC50: < 5.30

## O=C(COc1cccc(Cl)c1)Nc1ccc(-c2ccc(S(=O)(=O)Nc3nccs3)cc2)cc1 [Compound 5, 2-(3-Chloro-phenoxy)-N-[4′-(thiazol-2-ylsulfamoyl)-biphenyl-4-yl]-acetamide]
[1]; [8]
  pIC50: 5.30 to 6.00

## C[C@@H](C(=O)Nc1ccc(-c2ccc(S(=O)(=O)Nc3nccs3)cc2)cc1)n1ccc2c(F)cccc21 [Compound 6, (S)-2-(4-Fluoro-indol-1-yl)-N-[4′-(thiazol-2-ylsulfamoyl)-biphenyl-4-yl]-propionamide]
[1]; [8]
  pIC50: > 6.00

## NCC1(CC(=O)O)CCCCC1 [Gabapentin]
[2]
  share of patients in which it works: 60%

## NC1=N[C@H](O)[C@H]2[C@H]3O[C@]4(O)O[C@@H]([C@@H](O)[C@@]2(N1)[C@@H]4O)[C@]3(O)CO [TTX, tetrodotoxin]
[3]
  pIC50: 7.82
[4]
  pIC50: 8.22
[5]
  pIC50: < 4.30
[6]
  pIC50: 6.00
[7]
  pIC50: 8.00

From patent US8236833B2, “Biphenyl derivatives as modulators of voltage gated ion channels” (Vertex Pharmaceuticals Incorporated, priority 2005, dated 2012)
